According to patent publication US20140024839A1, “FULLERENE DERIVATIVE, AND METHOD OF PREPARING THE SAME” (RICOH COMPANY, LTD., priority 2012, published 2014):

Assay: Solubility in o-dichlorobenzene (saturated solution, HPLC with standard curves)
Assay type: physicochemical
Conditions: saturated o-dichlorobenzene solution at 25° C., filtered 0.45 μm, HPLC 254 nm
Method: Solubilities of the fullerene derivatives having the formulae (1a) to (5a) of the present invention in Examples 1 to 5 and the fullero pyrrolidine in Application Examples 1 to 5 in o-dichlorobenzene were evaluated by the following method. A 0.1 mM o-dichlorobenzene solution and a 1.0 mM o-dichlorobenzene solution of each of the fullerene derivatives and the fullero pyrrolidine were prepared, and diluted fivefold with THF for HPLC. Ten (10) μL of the diluted solution was analyzed by a high-speed liquid chromatograph (LC-2010HT from Shimadzu Corp.; developing solvent: THF/ion-exchanged water=60/40; analysis time: 60 min; and detection wavelength: 254 nm) to prepare a chromatogram. Standard curves of the known concentrations (0.1 mM and 1.0 mM) were obtained therefrom. Next, a saturated o-dichlorobenzene solution of each of the fullerene derivatives and the fullero pyrrolidine were prepared at 25° C. After the saturated solution was filtered with a 0.45 μm filter, it was diluted hundredfold with THF for HPLC. Ten (10) μL of the diluted solution was analyzed by the same method mentioned above to prepare a chromatogram. A weight of the fullerene derivative dissolved in 1 mL of o-dichlorobenzene was determined as solubility using a peak area value of the chromatogram from the saturated solution and the standard curves.

Structure (SMILES)	Weight of the fullerene derivative dissolved in 1 mL of o-dichlorobenzene [mg]
CC(C)(C)OC(=O)Oc1ccc(N2CC34C5=c6c7c8c9c%10c%11c%12c%13c%14c%15c%16c%17c(c6c(c%16%13)c%117)C3(C2C(C)(C)C)C2C%173CC26c2c7c%11c%13c%16c2c2c%17c%18c%19c%20c%21c%22c%23c(c-%13c%21c%18%16)C(C%14C%23C%12C%10C%22C%20C9C9C8C5C(C%17C%199)C4C26)C%11C%15C73)cc1 (stereo not drawn) [formula (3a)]	107
CCCCCCCCCC1N(c2ccc(OC(=O)OC(C)(C)C)cc2)CC23C4=c5c6c7c8c9c%10c%11c%12c%13c%14c%15c%16c(c5c(c%15%12)c%106)C12C1C%162CC15c1c6c%10c%12c%15c%16c%17c%18c%19c%20c%21c%22c%23c%24c(c1c%12c(c%21%24)c%19%15)C5C3C%23C4C7C%22C8C%20C%18C9C%11C%17C%13C%16C%10C%14C62 (stereo not drawn) [formula (4a)]	159
CCCCCCCCCCCCC1N(c2ccc(OC(=O)OC(C)(C)C)cc2)CC23C4=c5c6c7c8c9c%10c%11c%12c%13c%14c%15c%16c(c5c(c%15%12)c%106)C12C1C%162CC15c1c6c%10c%12c%15c%16c%17c%18c%19c%20c%21c%22c%23c%24c(c1c%12c(c%21%24)c%19%15)C5C3C%23C4C7C%22C8C%20C%18C9C%11C%17C%13C%16C%10C%14C62 (stereo not drawn) [formula (5a)]	280
